We go through ten molecules from patent US10526327B2, “Histone demethylase inhibitors” (CELGENE QUANTICEL RESEARCH, INC., priority 2013, dated 2020).

The structures appear in SMILES notation.

What is called IC50 is the point on the concentration scale where inhibition reaches its midpoint. Low readings indicate inhibition by little substance, high ones a need for much substance.

The test concerns the target T1, Jarid1A (Homo sapiens, UniProt P29375).
T1 construct: purchased BPS Bioscience 50110
T1 sequence (P29375 1-1090): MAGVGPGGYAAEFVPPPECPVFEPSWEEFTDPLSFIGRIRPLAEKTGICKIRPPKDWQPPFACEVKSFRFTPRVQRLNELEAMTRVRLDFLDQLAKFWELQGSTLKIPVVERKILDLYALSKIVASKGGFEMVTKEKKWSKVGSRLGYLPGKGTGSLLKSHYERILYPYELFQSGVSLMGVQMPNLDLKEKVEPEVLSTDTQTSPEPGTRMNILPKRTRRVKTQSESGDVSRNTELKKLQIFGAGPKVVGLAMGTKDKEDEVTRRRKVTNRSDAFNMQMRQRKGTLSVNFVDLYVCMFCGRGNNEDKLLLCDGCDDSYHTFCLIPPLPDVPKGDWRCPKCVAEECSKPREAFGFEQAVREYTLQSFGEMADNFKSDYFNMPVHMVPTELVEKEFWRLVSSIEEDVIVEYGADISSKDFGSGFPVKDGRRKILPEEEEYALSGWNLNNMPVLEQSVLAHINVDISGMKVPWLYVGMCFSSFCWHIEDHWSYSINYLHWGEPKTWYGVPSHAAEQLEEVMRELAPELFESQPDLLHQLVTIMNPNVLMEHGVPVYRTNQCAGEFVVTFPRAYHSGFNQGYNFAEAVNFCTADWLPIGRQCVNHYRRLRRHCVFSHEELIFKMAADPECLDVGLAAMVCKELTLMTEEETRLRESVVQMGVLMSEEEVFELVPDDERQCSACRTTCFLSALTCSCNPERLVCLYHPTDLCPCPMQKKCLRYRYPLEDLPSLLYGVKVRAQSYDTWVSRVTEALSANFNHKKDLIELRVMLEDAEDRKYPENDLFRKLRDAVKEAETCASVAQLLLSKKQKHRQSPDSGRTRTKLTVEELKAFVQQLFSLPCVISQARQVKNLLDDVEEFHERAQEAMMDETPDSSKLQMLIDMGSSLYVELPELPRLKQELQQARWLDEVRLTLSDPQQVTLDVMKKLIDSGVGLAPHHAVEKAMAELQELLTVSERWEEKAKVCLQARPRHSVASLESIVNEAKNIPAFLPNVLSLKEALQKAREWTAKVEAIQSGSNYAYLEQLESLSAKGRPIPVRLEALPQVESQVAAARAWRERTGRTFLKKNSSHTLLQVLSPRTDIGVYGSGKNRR
The experiment in a line: Jarid1A in vitro enzyme inhibition assay (TR-FRET). Type of test: biochemical. The gist of the method:
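Demethylation of 300 nM biotin-H3K4me3 peptide by 1 nM baculovirus-expressed Jarid1A (aa 1–1090) with 2 μM α-ketoglutarate, Fe(II) and ascorbate, pH 7.3, 30 min at room temperature. Stopped with EDTA; H3K4me1-2 product detected by TR-FRET (Eu anti-H3K4me1-2/streptavidin-APC). IC50 fitted from 665/615 ratio over 11-point dilutions.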
In general terms: TR-FRET usually uses a lanthanide donor and a delayed reading to cut background.
The molecule `CN(C)c1cccc(Oc2nc(O)c3ccncc3n2)c1` [Example 50, 2-[3-(dimethylamino)phenoxy]pyrido[3,4-d]pyrimidin-4-ol] came in with an IC50 of at most 100 nM. For `Oc1nc(OCc2ccccc2)nc2cnccc12` [Example 4, 2-phenylmethoxypyrido[3,4-d]pyrimidin-4-ol], the IC50 lay in the range of 100 to 1000 nM.

As for `Oc1nc(Oc2cnn(Cc3ccccc3F)c2)nc2cnccc12` [Example 87, 2-[1-(2-fluorobenzyl)pyrazol-4-yl]oxypyrido[3,4-d]pyrimidin-4-ol], the half-inhibitory concentration (IC50) is at most 100 nM.

`Cn1cnc(-c2nccc3c(O)nc(Oc4cnn(Cc5ccccc5)c4)nc23)c1` [Example 79, 2-(1-benzylpyrazol-4-yl)oxy-8-(1-methylimidazol-4-yl)pyrido[3,4-d]pyrimidin-4-ol] displayed an IC50 of at most 100 nM. As to `CC(c1ccccc1)n1cc(Oc2nc(O)c3ccncc3n2)cn1` (stereo not shown) [Example 99], the IC50 is at most 100 nM. Turning to `CC(C)CCn1cc(Oc2nc(O)c3ccncc3n2)cn1` [Example 55, 2-{[1-(3-methylbutyl)pyrazol-4-yl]oxy}pyrido[3,4-d]pyrimidin-4-ol], the IC50 was at most 100 nM. For `Oc1nc(OCCOc2ccccc2)nc2cnccc12` [Example 10, 2-(2-phenoxyethoxy)-3H-pyrido[3,4-d]pyrimidin-4-one], the half-maximal inhibitory concentration (IC50) was at most 100 nM. As for `Oc1nc(Oc2cnn(C3CCCC3)c2)nc2cnccc12` [Example 56, 2-[(1-cyclopentylpyrazol-4-yl)oxy]pyrido[3,4-d]pyrimidin-4-ol], the IC50 is at most 100 nM. `Oc1nc(Oc2ccccc2F)nc2cnccc12` [Example 46, 2-(2-fluorophenoxy)pyrido[3,4-d]pyrimidin-4-ol] gave an IC50 of at most 100 nM. The molecule `Oc1nc(Oc2cnn(Cc3ccccc3)c2)nc2cnccc12` [Example 66, 2-[(1-benzyl-1H-pyrazol-4-yl)oxy]pyrido[3,4-d]pyrimidin-4-ol] yielded an IC50 of at most 100 nM.
